According to the NIST ThermoML archive (doi:10.1021/acs.jced.7b00458):

Settings: 100 kPa, Liquid; for electrical conductivity: Alternating current cell with electrodes; for viscosity: Concentric cylinders viscometry; for mass density: Vibrating tube method

CCCC[N+]1(C)CCCCC1.O=S(=O)([N-]S(=O)(=O)C(F)(F)F)C(F)(F)F
Settings	electrical conductivity [S/m]	mass density [kg/m3]	viscosity [mPa·s]
298.15 K	0.139	1382	188.9
300.15 K	0.153	1380	168
306.15 K	0.202	1375	120.2
312.15 K	0.264	1370	88.67
318.15 K	0.337	1365	67.13
324.15 K	0.424	1360	52.01
330.15 K	0.519	1355	41.12
336.15 K	0.626	1349	33.12
341.15 K	–	1345	27.98
348.15 K	0.876	1339	22.51
355.15 K	–	1333	18.36
361.15 K	1.19	1329	15.62
373.15 K	–	1319	11.62

CCCCC[P+](CC)(CC)CC.O=S(=O)([N-]S(=O)(=O)C(F)(F)F)C(F)(F)F
Settings	electrical conductivity [S/m]	mass density [kg/m3]	viscosity [mPa·s]
298.15 K	0.21	1304	85.3
300.15 K	0.223	1302	77.43
306.15 K	0.286	1297	58.68
312.15 K	0.358	1292	45.42
318.15 K	0.435	1287	35.82
324.15 K	0.521	1282	28.79
330.15 K	0.612	1277	23.5
336.15 K	0.711	1272	19.46
341.15 K	–	1268	16.79
348.15 K	0.917	1262	13.86
355.15 K	–	1256	11.58
361.15 K	1.17	1251	10.02
373.15 K	–	1241	7.531

CCCC[N+]1(C)CCCC1.O=S(=O)([N-]S(=O)(=O)C(F)(F)F)C(F)(F)F
Settings	electrical conductivity [S/m]	mass density [kg/m3]	viscosity [mPa·s]
298.15 K	0.393	1395	77.76
300.15 K	0.423	1393	71.11
306.15 K	0.52	1388	54.97
312.15 K	0.638	1382	43.41
318.15 K	0.772	1377	34.92
324.15 K	0.924	1372	28.56
330.15 K	1.08	1367	23.69
336.15 K	1.26	1361	19.91
341.15 K	–	1357	17.37
348.15 K	1.64	1351	14.53
355.15 K	–	1345	12.31
361.15 K	2.11	1340	10.78
373.15 K	–	1330	8.272

CC[P+](CC)(CC)CCOC.O=S(=O)([N-]S(=O)(=O)C(F)(F)F)C(F)(F)F
Settings	electrical conductivity [S/m]	mass density [kg/m3]	viscosity [mPa·s]
298.15 K	0.384	1378	48.14
300.15 K	0.411	1376	44.28
306.15 K	0.498	1370	34.95
312.15 K	0.608	1365	28.1
318.15 K	0.719	1360	22.97
324.15 K	0.848	1354	19.04
330.15 K	0.987	1349	16.01
336.15 K	1.13	1344	13.62
341.15 K	–	1339	11.98
348.15 K	1.45	1333	10.15
355.15 K	–	1327	8.692
361.15 K	1.84	1322	7.672
373.15 K	–	1311	5.99
